# Results taken from publication PMC13293952 (Cell Reports Medicine, 2026).
# Experiments:
# [1] = biological target: PICK1 (Rattus norvegicus, UniProt Q9EP80); assay: FPLC; format: biochemical; settings: FPLC Superdex 200, PICK1 40 µM, molar ratio 1:4 or 1:2, >=20 h at 4°C, A280
# [2] = tested on: CFA mice; assay: CFA model of inflammatory pain, von Frey paw withdrawal threshold; format: in vivo, mouse; settings: 3 mg/kg s.c. on days 11 and 40 after CFA, AAV8-tdTomato controls
# PICK1, sequence (Q9EP80 whole entry, the tested form may be a part): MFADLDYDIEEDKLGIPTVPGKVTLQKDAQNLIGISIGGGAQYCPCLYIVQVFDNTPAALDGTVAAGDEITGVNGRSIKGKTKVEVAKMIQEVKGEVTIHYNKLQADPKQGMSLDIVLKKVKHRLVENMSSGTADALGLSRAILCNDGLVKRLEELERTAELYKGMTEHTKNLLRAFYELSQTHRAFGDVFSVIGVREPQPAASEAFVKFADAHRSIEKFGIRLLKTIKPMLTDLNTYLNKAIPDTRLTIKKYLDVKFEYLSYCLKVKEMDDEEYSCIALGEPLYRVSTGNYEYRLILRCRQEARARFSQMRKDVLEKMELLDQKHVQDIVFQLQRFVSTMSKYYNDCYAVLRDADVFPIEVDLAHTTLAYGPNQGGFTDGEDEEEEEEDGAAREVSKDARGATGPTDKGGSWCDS
Compound,PICK1 oligomerization [1],reinstatement of allodynia [2]
biotin-ahx-GEELLEDIRKFNEMRKNMDQLKEKINSVLSIRQGGGGS-HWLKV [SSO10a-C5],drove PICK1 oligomerization,–
"O=C1CC[C@@]2(O)[C@H]3Cc4ccc(O)c5c4[C@@]2(CCN3CC2CC2)[C@H]1O5 [NTX, naltrexone]",–,selectively reinstated allodynia in this group
